Source: PubChem BioAssay (NCI)
Values joined by “and” are separate entries in the source; they are usually repeats but may differ in a detail not shown here. Identical values can stand only once.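 Cells were grown in 96-well plates and exposed to each compound for 48 hours at five concentrations; endpoints were interpolated linearly between bracketing concentrations, or set to the highest concentration if not reached. At the GI50, growth is halved. Definition used: TGI = concentration required for complete inhibition of growth.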

Key:
Assay in all cases: NCI tumour cell line growth inhibition, 48 h
[1] = system: OVCAR-5 ovarian
[2] = system: NCI-H460 lung
[3] = system: HS 578T breast
[4] = system: A549 NSCLC
[5] = system: IGROV1 ovarian
[6] = system: SNB-19 CNS
[7] = system: NCI-H522 lung
[8] = system: MOLT-4 leukemia
[9] = system: TK-10 renal
[10] = system: SNB-75 CNS

Structure (SMILES) | GI50 [1] | TGI [1] | GI50 [2] | TGI [2] | GI50 [3] | TGI [3] | GI50 [4] | TGI [4] | GI50 [5] | TGI [5] | GI50 [6] | TGI [6] | GI50 [7] | TGI [7] | GI50 [8] | TGI [8] | GI50 [9] | TGI [9] | GI50 [10] | TGI [10]
COc1cc(Nc2ncc(-c3ccccc3)o2)cc(OC)c1OC | 3.88 µM | > 25 µM | 0.161 µM | > 25 µM | 0.278 µM | 4.55 µM | 1.66 µM | > 25 µM | 1.28 µM | > 25 µM | 12.6 µM | > 25 µM | 0.925 µM | > 25 µM | 4.36 µM | > 25 µM | 1620 nM | > 25 µM | 0.577 µM | > 19.2 µM
Cc1cc(I)cc(CN(C)CCCCN2CCCC2)c1O | 27.6 µM | > 100 µM | 17.3 µM | 45.9 µM | 11.5 µM | 32.8 µM | 30.7 µM | > 100 µM | 24.8 µM | 59.1 µM | 27.8 µM | 96.1 µM | 22.4 µM | 46.2 µM | 15.5 µM | 33.4 µM | 20800 nM | 50.7 µM | 16.5 µM | 36.9 µM
C=C1C(=O)O[C@H]2[C@H](OC(C)=O)[C@@H](C)CCC/C(C)=C/CC[C@]3(CO3)[C@H](O)C[C@@H]12 | 13.2 µM | 26.5 µM | 5.35 µM | 17.5 µM | 14.4 µM | 35.3 µM | 16.9 µM | 35 µM | 3.37 µM | 12.8 µM | 15.2 µM | 28.5 µM | 6.22 µM | 20.2 µM | 2.28 µM | 5.82 µM | 1830 nM | 4.62 µM | 10.8 µM | 22.9 µM
Cc1cc(C#Cc2ccccc2)ccc1-n1c(/C=C/c2ccc(O)cc2)nc2ccccc2c1=O | 4.59 µM | 94.7 µM | 2.22 µM | 6.18 µM | 2.48 µM | 49.5 µM | 3.14 µM | > 100 µM | 20.6 µM | > 100 µM | 6.91 µM | > 100 µM | 2.26 µM | 27.3 µM | 2.36 µM | 8.33 µM | 2620 nM | 32.8 µM | 3.66 µM | 38.4 µM
O=C(O)c1c(Cl)c(Cl)c(Cl)c(Cl)c1-c1c2cc(I)c(=O)c(I)c-2oc2c(I)c(O)c(I)cc12 | 41.9 µM | 163 µM | 58.8 µM | > 200 µM | 35.7 µM and 33 µM | 83.7 µM | 177 µM | > 200 µM | 88.2 µM and 34.9 µM | 83.8 µM | 38.2 µM and 28.6 µM | 63.8 µM | 26.6 µM and 39.4 µM | 59.9 µM and 83.2 µM | 40.8 µM | 86.2 µM | 59000 nM | > 200 µM | 32.1 µM and 34 µM | 79.8 µM
COCCOC(=O)CCn1cc(F)c(=O)[nH]c1=O | 122 µg/mL | > 150 µg/mL | 0.821 µg/mL | > 150 µg/mL | > 150 µg/mL | > 150 µg/mL | 1.79 µg/mL | > 150 µg/mL | 7.36 µg/mL | > 150 µg/mL | 41.6 µg/mL | > 150 µg/mL | 131 µg/mL | > 150 µg/mL | 19.7 µg/mL | > 150 µg/mL | 6.77 µg/mL | > 150 µg/mL | 88.4 µg/mL | > 150 µg/mL
CCOc1ccc(N2C(N)=NC(N)=NC2(C)C)cc1 | 39.7 µM | > 100 µM | 39.8 µM | > 100 µM | > 100 µM | > 100 µM | 50.1 µM | > 100 µM | 46.5 µM | > 100 µM | 55.8 µM | > 100 µM | > 100 µM | > 100 µM | 65.6 µM | > 100 µM | > 100000 nM | > 100 µM | 60.5 µM | > 100 µM
NC(=NC1C2CC3CC(C2)CC1C3)Nc1ccc(I)cc1 (stereo not given) | 4.5 µM | 21.7 µM | 3.66 µM | 13 µM | 4.65 µM | 25.2 µM | 3.44 µM | 14.2 µM | 3.2 µM | 13.5 µM | 4.35 µM | 16.6 µM | 2.63 µM | 11.2 µM | 2.22 µM | 8.79 µM | 2590 nM | 8.85 µM | 2.09 µM | 15.7 µM
O=c1c2c(=NCCCN3CCCC3)cc3c(=O)n(CCCN4CCCC4)c(=O)c4c(NCCCN5CCCC5)cc(c(O)n1CCCN1CCCC1)c2c4-3 | 1.64 µM | 4.74 µM | 1.78 µM | 4.01 µM | 2.67 µM | 9.63 µM | 1.45 µM | 3.84 µM | 3.51 µM | 12 µM | 2.11 µM | 10.6 µM | 1.44 µM | 5.53 µM | 6.63 µM | > 100 µM | 2220 nM | 8.65 µM | 1.64 µM | 4.1 µM
CC(Cl)CC(=O)Nc1ccc2c(c1)oc(=O)c1cc(NC(=O)CC(C)Cl)ccc12 (stereo not given) | 16.8 µM | 46.3 µM | 13.7 µM | 40.9 µM | 2.36 µM | 22.6 µM | 8 µM | 22.2 µM | 1.73 µM | 23.1 µM | 20.4 µM | 69.7 µM | 15.2 µM | 36.8 µM | 10.2 µM | 34.4 µM | 10100 nM | 23.8 µM | 15.1 µM | 48.7 µM
COc1cc(SC)ccc1C(=O)N1CCCC(C)C1 (stereo not given) | > 100 µM | > 100 µM | > 100 µM | > 100 µM | > 100 µM | > 100 µM | > 100 µM | > 100 µM | > 100 µM | > 100 µM | > 100 µM | > 100 µM | > 100 µM | > 100 µM | 77.7 µM | > 100 µM | > 100000 nM | > 100 µM | > 100 µM | > 100 µM
